# Biological target: bovine folate binding protein (bFBP) (Bos taurus, UniProt P02702)
# Assay: competitive binding ELISA, displacement of folic acid-HRP, chemiluminescence
# Sequence of bovine folate binding protein (bFBP) (P02702 20-234): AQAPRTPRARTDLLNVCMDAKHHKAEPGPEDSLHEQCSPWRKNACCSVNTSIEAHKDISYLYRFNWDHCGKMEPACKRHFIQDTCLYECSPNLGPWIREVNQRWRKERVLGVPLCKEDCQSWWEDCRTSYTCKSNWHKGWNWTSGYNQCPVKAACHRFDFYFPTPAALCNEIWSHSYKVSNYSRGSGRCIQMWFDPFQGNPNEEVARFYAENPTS
compound,measurement,value
CCCC(CCC)C(=O)O [Valproic acid],IC50,269 mM

# — publication PMC4396868 (Birth defects research. Part A, Clinical and molecular …, 2014)
